Data on four molecules can be found in ChEMBL document CHEMBL1156198 (J Med Chem, 2010).

A short description of series [1]: Clearance in CD1 mouse. The class given is ADME, organism-based. To be noted: in vivo.
Series [2] is described as follows: AUC in CD1 mouse plasma at 30 mg/kg, po. Type of series: ADME, organism-based. Also on record: dose 30 mg/kg, route oral.
Series [3] in a line: Terminal phase volume of distribution in CD1 mouse. Type of series: ADME, organism-based. Conditions: in vivo, read-out: Vbeta.
A short description of series [4]: Oral bioavailability in CD1 mouse at 10 mg/kg. Conditions: in vivo. The class given is ADME, organism-based.
Series [5] can be described thus: Cmax in CD1 mouse at 10 mg/kg, po. The class given is ADME, organism-based. Also on record: dose 10 mg/kg, route oral. To be noted: in vivo.
The nature of series [6]: AUC in CD1 mouse brain at 30 mg/kg, po. Also on record: dose 30 mg/kg, route oral. The class given is ADME, organism-based.
Series [7] in a line: AUC in CD1 mouse at 10 mg/kg, po. Type of series: ADME, organism-based. Also noted: dose 10 mg/kg, route oral. Conditions: plasma.
Series [8] can be described thus: Half life in iv dosed CD1 mouse. Type of series: ADME, organism-based. Conditions: in vivo.
The nature of series [9]: Terminal phase volume of distribution in cynomolgus monkey. Type of series: ADME, organism-based, Macaca fascicularis. Conditions: in vivo, read-out: Vbeta.
A short description of series [10]: Clearance in Beagle dog. The class given is ADME, organism-based, Canis lupus familiaris. To be noted: in vivo.
A short description of series [11]: Oral bioavailability in cynomolgus monkey at […]. The class given is ADME, organism-based, Macaca fascicularis. To be noted: in vivo.
Series [12] is described as follows: Oral bioavailability in Sprague-Dawley rat at 5 mg/kg. To be noted: in vivo. The class given is ADME, organism-based.
Series [13] in a line: Oral bioavailability in Beagle dog at […]. Type of series: ADME, organism-based, Canis lupus familiaris. Conditions: in vivo.
Series [14] can be described thus: Cmax in Sprague-Dawley rat at 5 mg/kg, po. The class given is ADME, organism-based. To be noted: in vivo. Also on record: dose 5 mg/kg, route oral.
Series [15] can be described thus: AUC in cynomolgus monkey at […], po. Conditions: plasma. Also on record: dose 2.5 mg/kg, route oral. The class given is ADME, organism-based, Macaca fascicularis.
The nature of series [16]: Terminal phase volume of distribution in Sprague-Dawley rat. Type of series: ADME, organism-based. Conditions: in vivo, read-out: Vbeta.
Series [17] in a line: AUC in Sprague-Dawley rat at 5 mg/kg, po. The class given is ADME, organism-based. Also on record: dose 5 mg/kg, route oral. Conditions: plasma.
Series [18] can be described thus: Cmax in Beagle dog at […], po. The class given is ADME, organism-based, Canis lupus familiaris. Conditions: in vivo. Also on record: dose 2.5 mg/kg, route oral.
A short description of series [19]: Cmax in cynomolgus monkey at […], po. Also noted: dose 2.5 mg/kg, route oral. Type of series: ADME, organism-based, Macaca fascicularis. To be noted: in vivo.
Series [20] can be described thus: Clearance in cynomolgus monkey. Type of series: ADME, organism-based, Macaca fascicularis. To be noted: in vivo.
Series [21] in a line: Half life in iv dosed cynomolgus monkey. The class given is ADME, organism-based, Macaca fascicularis. Conditions: in vivo.
Series [22] is described as follows: Clearance in Sprague-Dawley rat. Type of series: ADME, organism-based. Conditions: in vivo.
The nature of series [23]: Half life in iv dosed Sprague-Dawley rat. The class given is ADME, organism-based. Conditions: in vivo.
Series [24] in a line: AUC in Beagle dog at […], po. Type of series: ADME, organism-based, Canis lupus familiaris. Also on record: dose 2.5 mg/kg, route oral. To be noted: plasma.
A short description of series [25]: Terminal phase volume of distribution in Beagle dog. The class given is ADME, organism-based, Canis lupus familiaris. To be noted: in vivo, read-out: Vbeta.
Series [26] can be described thus: Half life in iv dosed Beagle dog. The class given is ADME, organism-based, Canis lupus familiaris. To be noted: in vivo.
The nature of series [27]: Ratio of drug level in plasma to brain of CD1 mouse.
Series [28] is described as follows: Drug level in mouse B16F10 cells transplanted in C57BL/6 mouse at 25 mg/kg/day, po administered from day 6 to 10 post transplantation measured after 6 hrs of final dose. The class given is ADME, organism-based, C57BL6, B16-F10. Also noted: route oral. Conditions: B16F10 tumour (neoplasm).
Series [29] in a line: Drug level in mouse B16F10 transplanted C57BL/6 mouse plasma at 25 mg/kg/day, po administered from day 6 to 10 post transplantation measured after 6 hrs of final dose. The class given is ADME, organism-based, C57BL6. Also on record: route oral.
A short description of series [30]: Drug level in mouse B16F10 transplanted TMZ-treated C57BL/6 mouse plasma […] at 25 mg/kg/day, po administered from day 6 to 10 post transplantation measured after 6 hrs of final dose in presence of TMZ. Type of series: ADME, organism-based, C57BL6. Also on record: route oral.

As a reminder, the clearance is a measure of how efficiently the substance is removed, as volume per time. The AUC is the area under the concentration-time curve, a measure of exposure. For orientation: bioavailability means dose-corrected exposure relative to a reference, in per cent. Usually Cmax stands for the peak of the concentration-time curve. A word on the half-life: it is the time needed for the level to fall by half in the phase considered. `NC(=O)c1cccc2[nH]c(-c3ccc([C@H]4CCCCN4)cc3F)nc12` showed a clearance in series [1] of 122 mL/min/kg. For the same molecule, the AUC in series [2] came to 5800 ng·h/mL; in series [6] it was 6300 ng·h/mL; in series [7] it was 1600 ng·h/mL. Besides, the Vd in series [3] is 15 L/kg. The molecule further yielded a bioavailability in series [4] of 100%. For the same molecule, in series [5], the Cmax was 300 ng/mL. The molecule also had a half-life in series [8] of 1.4 h.

For the molecule `NC(=O)c1cccc2[nH]c(-c3ccc([C@@H]4CCCCN4)cc3F)nc12`, the Vd in series [9] came to 15 L/kg; in series [3], 6.6 L/kg; in [16], 14 L/kg; in series [25], 9.3 L/kg. The clearance is 56.7 mL/min/kg in [10], 60 mL/min/kg in [1], 36.7 mL/min/kg in series [20] and 38.3 mL/min/kg in series [22]. The AUC was determined as 9900 ng·h/mL in series [2]; 750 ng·h/mL in series [15]; 1800 ng·h/mL in series [17]; 9100 ng·h/mL in series [6]; 1700 ng·h/mL in series [7]; 300 ng·h/mL in series [24]. Moreover, the bioavailability in series [11] was found to be 61%; in [12] it was 80%; in series [13], 39%; in series [4], 63%. For the same molecule, the Cmax in series [14] stood at 200 ng/mL; in series [5], 500 ng/mL; in series [18] it was 100 ng/mL; in [19], 100 ng/mL. Also, the half-life in series [21] is 5 h; in series [8], 1.3 h; in series [23], 4.5 h; in series [26], 2 h.

Broadly, the Kp is tissue or fluid exposure divided by exposure in the circulation. `NC(=O)c1cccc2[nH]c(-c3ccc([C@H]4CCCN4)cc3F)nc12` had a clearance in series [1] of 60 mL/min/kg. The AUC in series [2] was determined as 4200 ng·h/mL; in series [6], 1800 ng·h/mL; in [7], 1000 ng·h/mL. In series [3], the Vd amounted to 4.6 L/kg. Further, the concentration ratio (Kp) in series [27] was determined as 2. For the same molecule, the bioavailability in series [4] is 36%. Also, the peak concentration (Cmax) in series [5] amounted to 500 ng/mL. The same molecule showed a half-life in series [8] of 0.9 h.

For the molecule `NC(=O)c1cccc2[nH]c(-c3ccc([C@@H]4CCCN4)cc3F)nc12`, the Vd in series [9] amounted to 9.2 L/kg; in series [3] it was 3.3 L/kg; in series [16] it was 4.1 L/kg; in [25], 3.6 L/kg. The concentration at 6 h in series [28] amounted to 17200 ng/mL; in series [29], 220 ng/mL; in series [30], 380 ng/mL. The clearance in series [10] is 28.3 mL/min/kg; in series [1], 48.3 mL/min/kg; in [20], 68.3 mL/min/kg; in [22], 28.3 mL/min/kg. The AUC in [2] is 9800 ng·h/mL; in series [15] it was 200 ng·h/mL; in [17], 1700 ng·h/mL; in [6] it was 4200 ng·h/mL; in series [7] it was 1200 ng·h/mL; in [24] it was 1100 ng·h/mL. The bioavailability in [11] was 34%; in series [12], 55%; in [13], 72%; in series [4] it was 36%. For the same molecule, the concentration ratio (Kp) in [27] worked out at 2. For the same molecule, the peak concentration (Cmax) in series [14] stood at 300 ng/mL; in [5], 600 ng/mL; in [18], 500 ng/mL; in series [19], 30 ng/mL. Moreover, the half-life in series [21] was 1.8 h; in series [8], 0.8 h; in [23], 1.9 h; in [26], 1.7 h.
